The source of these data is patent publication US9758495B2, “Heteroaryl acid morpholinone compounds as MDM2 inhibitors for the treatment of cancer” (AMGEN INC., priority 2013, dated 2017).

The IC50 is the concentration that inhibits the measured activity by half.

Chain of GST-hMDM2 (aa 1-188) / biotinylated-p53 (aa 1-83) (Q00987 1-188): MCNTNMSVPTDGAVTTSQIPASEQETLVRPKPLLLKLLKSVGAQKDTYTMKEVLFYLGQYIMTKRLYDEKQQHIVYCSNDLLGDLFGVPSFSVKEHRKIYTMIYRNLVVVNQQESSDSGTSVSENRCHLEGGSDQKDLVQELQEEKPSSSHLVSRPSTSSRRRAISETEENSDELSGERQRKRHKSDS

The test deals with GST-hMDM2 (aa 1-188) / biotinylated-p53 (aa 1-83) (Homo sapiens (Human), UniProt Q00987). As to the kind of experiment: Homogenous Time-Resolved Fluorescence Assay (HTRF2 assay), inhibition of HDM2-p53 interaction. Particulars: 0.2 nM GST-hMDM2 (1-188), 0.5 nM biotinylated-p53 (1-83), 0.18 nM SA-XLent, 100 mM KF. It counts as binding. The procedure:
Residues 1-83 of human p53 were expressed as an amino-terminal AviTag™-TrxA-6×His fusion protein (biotinylated p53) in E. coli. Each protein was purified from cell paste by affinity chromatography.
Specifically, 10 uL of GST-hMDM2 was incubated with 10 ul of diluted compound (various concentrations, serially diluted) in 10% DMSO for 20 minutes at room temperature. 20 uL of biotinylated-p53 was added to the GST-hMDM2+compound mixture, and then incubated at room temperature for 60 min. 10 uL of detection buffer consisting of SA-XLent, anti-GST cryptate antibody and KF was added to GST-hMDM2, biotinylated-p53 and compound reaction and left at room temperature to reach equilibrium for >4 hrs. The final concentration of DMSO in the reaction was 2%. Time-resolved fluorescence readings were measured on a microplate multilabel reader. Percentage of inhibition was calculated relative to nutlin-3.
Compound `CC(C)(C)S(=O)(=O)C[C@H](C1CC1)N1C(=O)[C@](C)(Cc2ccc(C(=O)O)c[n+]2[O-])O[C@H](c2cccc(Cl)c2)[C@H]1c1ccc(Cl)cc1` (single isomer, unassigned) [Example 3, 2-(((2S,5R,6R)-4-((S)-2-(tert-Butylsulfonyl)-1-cyclopropylethyl)-6-(3-chlorophenyl)-5-(4-chlorophenyl)-2-methyl-3-oxomorpholin-2-yl)methyl)-5-carboxypyridine 1-oxide or 2-(((2R,5R,6R)-4-((S)-2-(tert-Butylsulfonyl)-1-cyclopropylethyl)-6-(3-chlorophenyl)-5-(4-chlorophenyl)-2-methyl-3-oxomorpholin-2-yl)methyl)-5-carboxypyridine 1-oxide] registered an IC50 of 0.23 nM.

On to `CC(C)(C)S(=O)(=O)C[C@H](C1CC1)N1C(=O)[C@@](C)(Cc2ccc(C(=O)O)c[n+]2[O-])O[C@H](c2cccc(Cl)c2)[C@H]1c1ccc(Cl)cc1` (single isomer, unassigned) [Example 4, 2-(((2R,5R,6R)-4-((S)-2-(tert-butylsulfonyl)-1-cyclopropylethyl)-6-(3-chlorophenyl)-5-(4-chlorophenyl)-2-methyl-3-oxomorpholin-2-yl)methyl)-5-carboxypyridine 1-oxide or 2-(((2S,5R,6R)-4-((S)-2-(tert-butylsulfonyl)-1-cyclopropylethyl)-6-(3-chlorophenyl)-5-(4-chlorophenyl)-2-methyl-3-oxomorpholin-2-yl)methyl)-5-carboxypyridine 1-oxide], for which the IC50 came to 1.85 nM.

`CC(C)(C)S(=O)(=O)C[C@H](C1CC1)N1C(=O)[C@@](C)(Cc2ncc(C(=O)O)s2)O[C@H](c2cccc(Cl)c2)[C@H]1c1ccc(Cl)c(F)c1` (single isomer, unassigned) [Example 5, 2-(((2R,5R,6R)-4-((S)-2-(tert-Butylsulfonyl)-1-cyclopropylethyl)-5-(4-chloro-3-fluorophenyl)-6-(3-chlorophenyl)-2-methyl-3-oxomorpholin-2-yl)methyl)thiazole-5-carboxylic acid or 2-(((2S,5R,6R)-4-((S)-2-(tert-butylsulfonyl)-1-cyclopropylethyl)-5-(4-chloro-3-fluorophenyl)-6-(3-chlorophenyl)-2-methyl-3-oxomorpholin-2-yl)methyl)thiazole-5-carboxylic acid] displayed an IC50 of 0.121 nM.

In the case of `CC(C)(C)S(=O)(=O)C[C@H](C1CC1)N1C(=O)[C@@](C)(Cc2ccc(C(=O)O)cn2)O[C@H](c2cccc(Cl)c2)[C@H]1c1ccc(Cl)c(F)c1` (single isomer, unassigned) [Example 6, 6-(((2R,5R,6R)-4-((S)-2-(tert-Butylsulfonyl)-1-cyclopropylethyl)-5-(4-chloro-3-fluorophenyl)-6-(3-chlorophenyl)-2-methyl-3-oxomorpholin-2-yl)methyl)nicotinic acid or 6-(((2S,5R,6R)-4-((S)-2-(tert-butylsulfonyl)-1-cyclopropylethyl)-5-(4-chloro-3-fluorophenyl)-6-(3-chlorophenyl)-2-methyl-3-oxomorpholin-2-yl)methyl)nicotinic acid], inhibition was half-maximal at 0.11 nM (IC50).

As for `CC(C)(C)S(=O)(=O)C[C@H](C1CC1)N1C(=O)[C@@](C)(Cc2ccc(C(=O)O)cn2)O[C@H](c2cccc(Cl)c2)[C@H]1c1ccc(Cl)c(F)c1` (single isomer, unassigned) [Example 7, 6-(((2R,5R,6R)-4-((S)-2-(tert-butylsulfonyl)-1-cyclopropylethyl)-5-(4-chloro-3-fluorophenyl)-6-(3-chlorophenyl)-2-methyl-3-oxomorpholin-2-yl)methyl)nicotinic acid or 6-(((2S,5R,6R)-4-((S)-2-(tert-butylsulfonyl)-1-cyclopropylethyl)-5-(4-chloro-3-fluorophenyl)-6-(3-chlorophenyl)-2-methyl-3-oxomorpholin-2-yl)methyl)nicotinic acid], the IC50 was less than 0.1 nM.
